According to US20230113037A1 (Bayer Aktiengesellschaft, priority 2019, published 2023):
Like-named read-outs stand apart in the source and are kept apart here.

Key:
AHR [1] = biological target: T1, AHR (Homo sapiens, UniProt P35869); test: In vitro assay 1: antagonism in human cell line (AHR transactivation, firefly luciferase reporter, kynurenic acid prestimulated); format: cell-based; conditions: AHR Antagonism Human IC50 [M]
T1 construct: U87 MG glioblastoma cells (ATCC #HTB-14) endogenously expressing AHR; endogenous in cells; host or cells: U87 MG glioblastoma cells (ATCC #HTB-14)
T1 sequence (P35869 11-848): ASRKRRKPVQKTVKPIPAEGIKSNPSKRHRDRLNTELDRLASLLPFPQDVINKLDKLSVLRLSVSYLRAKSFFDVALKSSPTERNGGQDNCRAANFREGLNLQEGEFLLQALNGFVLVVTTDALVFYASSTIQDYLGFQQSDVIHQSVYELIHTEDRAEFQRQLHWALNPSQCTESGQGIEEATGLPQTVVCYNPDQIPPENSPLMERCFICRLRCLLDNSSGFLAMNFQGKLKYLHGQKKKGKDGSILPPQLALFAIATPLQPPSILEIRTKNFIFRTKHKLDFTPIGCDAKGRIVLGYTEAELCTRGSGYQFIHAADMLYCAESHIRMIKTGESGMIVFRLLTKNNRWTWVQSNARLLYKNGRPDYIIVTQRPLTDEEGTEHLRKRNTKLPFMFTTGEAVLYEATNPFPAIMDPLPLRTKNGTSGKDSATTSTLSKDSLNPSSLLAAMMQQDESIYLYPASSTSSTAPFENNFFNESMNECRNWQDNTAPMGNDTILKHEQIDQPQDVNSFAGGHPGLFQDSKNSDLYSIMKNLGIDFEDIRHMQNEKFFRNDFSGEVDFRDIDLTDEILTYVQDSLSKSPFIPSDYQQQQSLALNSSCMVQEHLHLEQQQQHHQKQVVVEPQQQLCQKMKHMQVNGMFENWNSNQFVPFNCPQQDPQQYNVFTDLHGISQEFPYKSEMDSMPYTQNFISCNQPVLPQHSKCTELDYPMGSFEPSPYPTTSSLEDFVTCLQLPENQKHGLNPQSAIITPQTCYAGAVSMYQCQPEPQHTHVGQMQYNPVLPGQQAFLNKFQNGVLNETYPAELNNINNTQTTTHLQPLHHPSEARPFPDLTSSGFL
In short: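 Antagonism measured as loss of kynurenic acid-driven firefly luciferase from DRE reporter in stably transfected U87 MG cells; constitutive Renilla signal monitors cytotoxicity. Positive/negative control normalization, staurosporine 5 μM with 150 μM kynurenic acid as inhibition control; replicates given as mean or median.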

AHR [2] = biological target: T2, AHR (Mus musculus, UniProt P30561); test: In vitro assay 3: antagonism in mouse cell line (AHR transactivation, firefly luciferase reporter, kynurenic acid prestimulated); format: cell-based; conditions: 200 μM kynurenic acid, 20 hours, read-out: AHR Antagonism Mouse IC50
T2 sequence (P30561 1-848 P471L/N533S/M589L): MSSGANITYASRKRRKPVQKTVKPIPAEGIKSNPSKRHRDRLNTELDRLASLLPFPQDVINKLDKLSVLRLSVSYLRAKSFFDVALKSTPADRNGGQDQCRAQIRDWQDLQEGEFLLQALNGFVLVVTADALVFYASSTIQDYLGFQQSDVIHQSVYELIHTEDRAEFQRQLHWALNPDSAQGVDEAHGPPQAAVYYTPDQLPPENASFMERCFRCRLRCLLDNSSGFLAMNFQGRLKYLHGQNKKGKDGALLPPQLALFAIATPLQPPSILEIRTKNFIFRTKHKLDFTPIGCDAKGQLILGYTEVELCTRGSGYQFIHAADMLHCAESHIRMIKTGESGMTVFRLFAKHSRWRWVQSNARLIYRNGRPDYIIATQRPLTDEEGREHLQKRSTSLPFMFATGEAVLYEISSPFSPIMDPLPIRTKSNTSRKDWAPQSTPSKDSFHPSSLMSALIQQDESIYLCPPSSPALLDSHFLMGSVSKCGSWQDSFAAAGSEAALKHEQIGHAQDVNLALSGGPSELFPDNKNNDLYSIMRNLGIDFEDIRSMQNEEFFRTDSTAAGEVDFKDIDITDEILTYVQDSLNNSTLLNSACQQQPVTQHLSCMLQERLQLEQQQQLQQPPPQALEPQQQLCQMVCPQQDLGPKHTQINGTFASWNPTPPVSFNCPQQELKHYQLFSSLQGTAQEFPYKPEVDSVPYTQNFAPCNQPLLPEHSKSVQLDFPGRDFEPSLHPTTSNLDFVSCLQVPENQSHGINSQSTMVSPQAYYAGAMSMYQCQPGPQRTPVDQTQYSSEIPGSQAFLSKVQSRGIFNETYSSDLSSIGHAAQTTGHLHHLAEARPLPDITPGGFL
In short: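 Kynurenic acid-prestimulated mouse reporter cells; stable AHR-inducible firefly luc construct with DRE sites in promoter. No-agonist wells = positive inhibition ctrl. Luminescence normalized to pos/neg ctrls; n>1 reported as mean or median.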

[3] = Hepa 1c1c7 cells, firefly luciferase reporter

| SMILES | IC50 (AHR [1]) [M] | IC50 (AHR [2]; mouse Hepa 1c1c7 cells) [nM] | IC50 (AHR [1]; firefly luciferase reporter) [M] | IC50 (AHR [2]; [3]) [nM] |
| --- | --- | --- | --- | --- |
| COc1ccc(-c2nc3c4ccccc4nc(NC4CNCCNC4=O)n3n2)cc1 (single isomer, unassigned) [Example 36, 6-{[2-(4-methoxyphenyl)[1,2,4]triazolo[1,5-c]quinazolin-5-yl]amino}-1,4-diazepan-5-one] | 8.01e-09 | 29.4 |  |  |
| COc1cccc(-c2nc3c4ccc(F)cc4nc(N[C@H]4CCCCNC4=O)n3n2)c1 [Example 150, (3S)-3-{[8-fluoro-2-(3-methoxyphenyl)[1,2,4]triazolo[1,5-c]quinazolin-5-yl]amino}azepan-2-one] | 1.97e-07 | 48.8 |  |  |
| O=C1NCCCC[C@H]1Nc1nc2ccccc2c2nc(-c3ccccc3F)nn12 [Example 55, (3R)-3-{[2-(2-fluorophenyl)[1,2,4]triazolo[1,5-c]quinazolin-5-yl]amino}azepan-2-one] | 2.01e-09 | 15.7 |  |  |
| C[C@@H](Nc1nc2ccccc2c2nc(-c3ccc(S(C)(=O)=O)cc3)nn12)C(=O)NCCN(C)C [Example 774, N-[2-(dimethylamino)ethyl]-N^2-{2-[4-(methanesulfonyl)phenyl][1,2,4]triazolo[1,5-c]quinazolin-5-yl}-D-alaninamide] | 2.26e-06 | 555 |  |  |
| COC(=O)[C@H](Nc1nc2c(Br)cccc2c2nc(-c3cnn(C)c3)nn12)C(C)C [Example 868, methyl N-[7-bromo-2-(1-methyl-1H-pyrazol-4-yl)[1,2,4]triazolo[1,5-c]quinazolin-5-yl]-D-valinate] |  |  | 6.28e-09 | 6.29 |
| CCNC(=O)C(CC)Nc1nc2ccccc2c2nc(-c3ccccc3OC(F)(F)F)nn12 (stereo not drawn) [Example 463, N-ethyl-2-({2-[2-(trifluoromethoxy)phenyl][1,2,4]triazolo[1,5-c]quinazolin-5-yl}amino)butanamide] | 2.94e-08 | 1.88 |  |  |
| CC[C@H](Nc1nc2ccccc2c2nc(-c3ccc(OC)cc3)nn12)C(N)=O [Example 434, (2S)-2-{[2-(4-methoxyphenyl)[1,2,4]triazolo[1,5-c]quinazolin-5-yl]amino}butanamide] | 6.43e-08 | 75 |  |  |
| CC[C@@H](Nc1nc2ccccc2c2nc(-c3cc(Cl)ccc3OC(F)(F)F)nn12)C(N)=O [Example 504, (2R)-2-({2-[5-chloro-2-(trifluoromethoxy)phenyl][1,2,4]triazolo[1,5-c]quinazolin-5-yl}amino)butanamide] | 3.65e-07 | 37.9 |  |  |
| O=C1NCCCC[C@H]1Nc1nc2c(C(F)(F)F)cccc2c2nc(-c3cn(C4CC4)nc3C(F)F)nn12 [Example 743, (3R)-3-({2-[1-cyclopropyl-3-(difluoromethyl)-1H-pyrazol-4-yl]-7-(trifluoromethyl)[1,2,4]triazolo[1,5-c]quinazolin-5-yl}amino)azepan-2-one] | 1.26e-09 | 1.73 |  |  |
| COc1ccc(-c2nc3c4cc(F)ccc4nc(N[C@@H]4CNCCNC4=O)n3n2)cc1 [Example 277, (6R)-6-{[9-fluoro-2-(4-methoxyphenyl)[1,2,4]triazolo[1,5-c]quinazolin-5-yl]amino}-1,4-diazepan-5-one] | > 2e-05 | 15.1 |  |  |
| C[C@@H](Nc1nc2c(Br)cccc2c2nc(-c3cnn(C)c3)nn12)C(=O)NCCN1CCNCC1 [Example 993, N^2-[7-bromo-2-(1-methyl-1H-pyrazol-4-yl)[1,2,4]triazolo[1,5-c]quinazolin-5-yl]-N-[2-(piperazin-1-yl)ethyl]-D-alaninamide-hydrogen chloride (1/2)] |  |  | 5.88e-07 | 4590 |
| COC(=O)[C@H](Nc1nc2c(Br)cccc2c2nc(-c3ccc(OC)cc3)nn12)C(C)C [Example 867, methyl N-[7-bromo-2-(4-methoxyphenyl)[1,2,4]triazolo[1,5-c]quinazolin-5-yl]-D-valinate] |  |  | 2.6e-09 | 3 |
| CC(C)n1cc(-c2nc3c4cccc(C(F)(F)F)c4nc(N[C@@H]4CS(=O)(=O)CCNC4=O)n3n2)cn1 [Example 852, (6S)-6-({2-[1-(propan-2-yl)-1H-pyrazol-4-yl]-7-(trifluoromethyl)[1,2,4]triazolo[1,5-c]quinazolin-5-yl}amino)-1λ^6,4-thiazepane-1,1,5-trione] |  |  | 8.28e-09 | 66.2 |
| COc1ccc(-c2nc3c4cccc(C5CC5)c4nc(N[C@H]4CNCCNC4=O)n3n2)cc1 [Example 959, (6S)-6-{[7-cyclopropyl-2-(4-methoxyphenyl)[1,2,4]triazolo[1,5-c]quinazolin-5-yl]amino}-1,4-diazepan-5-one] |  |  | 5.36e-08 | 368 |
| COc1cccc(-c2nc3c4cc(F)ccc4nc(NC4CCCNC4=O)n3n2)c1 (single isomer, unassigned) [Example 189, 3-{[9-fluoro-2-(3-methoxyphenyl)[1,2,4]triazolo[1,5-c]quinazolin-5-yl]amino}piperidin-2-one] | 2.61e-07 | 114 |  |  |
| Cc1nc(-c2nc3c4ccccc4nc(N[C@@H]4CCCCNC4=O)n3n2)co1 [Example 70, (3R)-3-{[2-(2-methyl-1,3-oxazol-4-yl)[1,2,4]triazolo[1,5-c]quinazolin-5-yl]amino}azepan-2-one] | 2.44e-08 | 51.7 |  |  |
| O=C1NCCCC[C@@H]1Nc1nc2ccccc2c2nc(-c3ccc(Br)cc3OC(F)(F)F)nn12 [Example 682, (3S)-3-({2-[4-bromo-2-(trifluoromethoxy)phenyl][1,2,4]triazolo[1,5-c]quinazolin-5-yl}amino)azepan-2-one] | 7.43e-08 | 6.82 |  |  |
| COc1ccc(-c2nc3c4cccc(Br)c4nc(N[C@H](C)C(=O)N4CCN(C)CC4)n3n2)cc1 [Example 788, (2R)-2-{[7-bromo-2-(4-methoxyphenyl)[1,2,4]triazolo[1,5-c]quinazolin-5-yl]amino}-1-(4-methylpiperazin-1-yl)propan-1-one] |  |  | 4.64e-10 | 2.08 |
| COc1ccc(-c2nc3c4cccc(Br)c4nc(N[C@H](C)C(=O)NCC(C)(C)N)n3n2)cc1 [Example 789, N-(2-amino-2-methylpropyl)-N^2-[7-bromo-2-(4-methoxyphenyl)[1,2,4]triazolo[1,5-c]quinazolin-5-yl]-D-alaninamide] |  |  | 4.3e-08 | 17.1 |
| COc1cccc(-c2nc3c4c(C)cccc4nc(N[C@H]4CCCCNC4=O)n3n2)c1 [Example 181, (3S)-3-{[2-(3-methoxyphenyl)-10-methyl[1,2,4]triazolo[1,5-c]quinazolin-5-yl]amino}azepan-2-one] | 3.37e-07 | 25.7 |  |  |
| CNCCNC(=O)[C@@H](C)Nc1nc2c(Br)cccc2c2nc(-c3cnn(C)c3)nn12 [Example 989, N^2-[7-bromo-2-(1-methyl-1H-pyrazol-4-yl)[1,2,4]triazolo[1,5-c]quinazolin-5-yl]-N-[2-(methylamino)ethyl]-D-alaninamide] |  |  | 5.18e-07 | 399 |
